According to paper PMC10587872, “Virtual Screening-Accelerated Discovery of a Phosphodiesterase 9 Inhibitor with Neuroprotective Effects in the Kainate Toxicity In Vitro Model” (ACS Chemical Neuroscience, 2023):

Target: T1, PDE9 (PDE9A) (Homo sapiens, UniProt O76083)
T1 construct: full-length recombinant human PDE9
Assay: PDE-Glo phosphodiesterase luminescence assay with cGMP substrate, recombinant human PDE9A
Assay type: biochemical

T1 sequence (O76083 whole entry): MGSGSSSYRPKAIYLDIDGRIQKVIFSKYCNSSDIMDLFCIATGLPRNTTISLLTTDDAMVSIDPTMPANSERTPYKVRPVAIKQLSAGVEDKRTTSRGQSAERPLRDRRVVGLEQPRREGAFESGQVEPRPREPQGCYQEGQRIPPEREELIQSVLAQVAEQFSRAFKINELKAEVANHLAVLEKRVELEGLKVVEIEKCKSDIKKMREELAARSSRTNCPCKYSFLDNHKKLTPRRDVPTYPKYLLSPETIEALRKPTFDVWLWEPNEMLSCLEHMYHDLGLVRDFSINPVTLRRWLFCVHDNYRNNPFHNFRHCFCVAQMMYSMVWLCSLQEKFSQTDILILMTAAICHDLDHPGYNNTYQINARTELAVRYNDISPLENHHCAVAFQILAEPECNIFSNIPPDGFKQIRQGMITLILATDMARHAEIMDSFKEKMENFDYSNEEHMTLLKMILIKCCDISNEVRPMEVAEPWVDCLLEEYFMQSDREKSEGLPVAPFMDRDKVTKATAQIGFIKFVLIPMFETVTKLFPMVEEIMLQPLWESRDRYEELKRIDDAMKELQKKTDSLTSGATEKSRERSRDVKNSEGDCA

IC50: 5.35 nM
Compound: CC(C)=CCc1c2c(c3occ(-c4ccc(OS(C)(=O)=O)c(OS(C)(=O)=O)c4)c(=O)c3c1O)C=CC(C)(C)O2 [DB987]
